From US8784910B2, “Antimicrobial compositions” (Lonza Inc., priority 2002, dated 2014) come the findings set out here.

Holding throughout (format): cell-based
The test system of experiment [1] is Staphylococcus aureus (ATCC #6538). Description: Minimum Inhibitory Concentration (MIC), autodilutor, nutrient broth, 96 well plates (Example 8). Conditions: 72 hours at 32 degree Celsius, approximately 10^6 cfu/g, visual turbidity. The method, then:
The Minimum Inhibitory Concentration (MIC) of the preservative mixtures was tested. The MIC is the lowest concentration of an ingredient that will inhibit the growth of an organism. This study was conducted using the Hamilton Micro Lab AT Plus Autodilutor Liquid handling System. The programs for the auto-dilutor were based on Lonza's Standard Application Method SAPM#412-01-1. The Hamilton Autodilutor was used to dilute the starting concentrations of the preservative combination by 50% using nutrient broth in 96 well micro titer plates and also to inoculate the microorganism in the test samples. This preservatives tested were Isocil™ (a blend of methyl isothiazolinone and methyl-chloro-isothiazolinone), Benzocil™ (benzisothiazolinone) and Lonzagard™ (benzethonium chloride), all of which are available from Lonza Inc. of Fair Lawn, N.J., in various concentrations and combinations with cinnamaldehyde. Controls were also included in each test plate. […] Results were determined by checking for growth in the test samples versus the control wells on each plate (visual determination of turbidity in the wells). […] Synergism values for the Isocil™/cinnamaldehyde and Benzocil™/cinnamaldehyde combinations were calculated from the MIC values reported in Table 11 by the method described in Kull, supra, referred to above, and are set forth in Tables 12 and 13, below.

Experiment [2] relates to Candida albicans and Aspergillus niger. Description: Mixed fungal challenge of preserved anionic protein shampoo (Example 5). The following applies: 1.0% in shampoo. The protocol: Each anionic shampoo sample in Table 4 below was tested as follows. A standard mixed […] solution was prepared according to the following procedure. 2 agar […] of Candida albicans and 4 agar […] of Aspergillus niger were separately incubated at about 25 EC for about 48 hours and 7 days, respectively. Each slant was washed with 3 mL of sterile 0.85% saline solution, collected and macerated in a tissue grinder. Sufficient amounts of 0.85% saline solution were added to each slant to obtain a visual count under a microscope with a Neubauer Hemocytometer of each innoculum of C. albicans and A. niger. Equal volumes of each standardized innoculum of C. albicans and A. niger were mixed together to form the standardized mixed fungal solution. 40 g of each shampoo sample was inoculated with 0.4 mL of the standardized mixed fungal solution and mixed. 1 g of the mixture was added to a sterile 20×150 mm screw cap test tube. 9 mL of sterile D/E neutralizer broth was added to the test tube and mixed to form a 10^-1 dilution. Serial dilutions were prepared through to a 10^-6 dilution with phosphate buffered water. The serial dilutions were plated onto Sabourand dextrose agar and incubated 5 days at about 25 EC. […] The anionic protein shampoo composition is described in Example 4. The shampoo samples were prepared by mixing the appropriate amounts of the preservatives and the anionic protein shampoo composition and heating the mixture to about 50 EC for about 15 minutes.

For experiment [3], the system named is S. aureus (ATCC #6538), P. aeruginosa (ATCC #9027), and E. coli (ATCC #8739). As to the kind of experiment: Mixed bacterial challenge of preserved anionic protein shampoo (Examples 4 and 7). The following applies: 1.0% (1%) by weight in shampoo; for S. aureus, P. aeruginosa, and E. coli Day 0: Day 0, Table 3; for S. aureus, P. aeruginosa, and E. coli Day 7: Day 7, Table 3; for S. aureus, P. aeruginosa, and E. coli Day 14: Day 14, Table 3. The method, then: (§1) Each anionic shampoo sample in Table 3 below was tested as follows. A standardized mixed bacterial solution was prepared according to the following procedure. 3 agar stabs of S. aureus (ATCC #6538), P. aeruginosa (ATCC #9027), and E. coli (ATCC #8739) were separately incubated at about 35 EC for about 24 hours. Each stab was then washed with 3 mL of sterile 0.85% saline solution. The washes of the 3 stabs were pooled together to form an organism mixture. The absorbance of the organism mixture at 530 nm was adjusted to about 1.00 by adding saline. The spectrometer was calibrated with a saline blank. A 5 mL aliquot of the organism mixture was mixed together to produce the standardized mixed bacterial solution. Then, 40 g of each shampoo sample was inoculated with 0.2 mL of the standardized mixed bacterial solution and mixed. 1 g of the mixture was added to a sterile 20×150 mm screw cap test tube.
9 mL of sterile D/E neutralizer broth was added to the test tube and mixed to form a 10^−1 dilution. Serial dilutions were prepared through to a 10^−6 dilution with phosphate buffered water. The serial dilutions were plated onto Tryptic Soy Agar and incubated for 2 days at about 35 EC. Bacteria counts were performed after 0, 7, and 14 days.
(§2) The anionic protein shampoo composition was comprised of 35% by weight of sodium lauryl ether sulfate; 25% by weight of triethanolamine lauryl sulfate; 3% by weight coconut diethanolamide (cocamide DEA); 1% by weight of hydrolyzed collagen, available as Polypro 5000™ from Hormel Foods of Austin, Minn.; and 36% by weight of deionized water.
The cinnamaldehyde and other preservative containing samples were prepared by mixing the appropriate amounts of the preservatives and the aforementioned anionic protein shampoo composition and heating the mixture to about 50 EC for about 15 minutes.
Synergism for the cinnamaldehyde/Glydant 2000™ solutions in Table 8 against S. aureus, P. aeruginosa, and E. coli was calculated by the method described in C. E. Kull et al., A Mixtures of Quaternary Ammonium Compounds and Long-chain Fatty Acids as Antifungal Agents@, Applied Microbiology, 9:538-541 (1961). The synergism value (QA/Qa+QB/Qb) in Table 7 was determined. […] Qa is the concentration of cinnamaldehyde alone (in percent by weight) required to yield 100% retardation of the bacteria. QB is the concentration of Glydant 2000™ (in percent by weight) in the mixture, which yielded 100% retardation of the bacteria. Qb is the concentration of Glydant 2000™ alone (in percent by weight) required to yield 100% retardation of the bacteria.
When the value of (QA/Qa+QB/Qb) is less than one, the mixture is synergistic. Values for (QA/Qa+QB/Qb) of 1 and greater than 1, represent an additive effect and an antagonistic effect, respectively.

Experiment [4] has the same test system. Description: Mixed bacterial challenge of preserved anionic protein shampoo, pH 6.5 (Example 3). The following applies: 0.45% w/w in shampoo; for bacteria count Day 0: pH 6.5, Day 0; for bacteria count Day 7: pH 6.5, Day 7; for bacteria count Day 14: pH 6.5, Day 14; for bacteria count Day 28: pH 6.5, Day 28. The method, then:
as §1, with “FIGS. 1-3 were” for “Table 3 below was”
9 mL of sterile D/E neutralizer broth was added to the test tube and mixed to form a 10^−1 dilution. Serial dilutions were prepared through to a 10^−6 dilution with phosphate buffered water. The serial dilutions were plated onto Tryptic Soy Agar and incubated for 2 days at about 35 EC. […]
as §2
The antimicrobial composition containing samples were prepared by mixing the appropriate amounts of the antimicrobial ingredients and the aforementioned anionic protein shampoo composition and heating the mixture to about 50 EC for about 15 minutes.
The pH of the shampoo was adjusted to 6.5. […]

Consider `O=c1[nH]sc2ccccc12` [Benzocil ™, benzisothiazolinone], for which the “MIC for S. Aureus” value in experiment [1] was 9.375 ppm (active).
Turning to `OCc1ccccc1` [Benzyl Alcohol, reference compound], the “Fungal Plate Count Day 0” value in experiment [2] (Day 0) is 1.0 × 10^5 cfu/g. Moreover, the “Fungal Plate Count Day 7” value in experiment [2] (Day 7) is 6.0 × 10^3 cfu/g. Besides, in experiment [2] (Day 14), the “Fungal Plate Count Day 14” value was 6.0 × 10^4 cfu/g. For the same molecule, in experiment [3], the “S. aureus, P. aeruginosa, and E. coli Day 0” value is listed as 3.0 × 10^7 cfu/g; the “S. aureus, P. aeruginosa, and E. coli Day 7” value is on record as 5.0 × 10^6 cfu/g; the “S. aureus, P. aeruginosa, and E. coli Day 14” value is given as 5.3 × 10^6 cfu/g.
`CC(C)=CCCC(C)=CC=O` [Citral]: in experiment [3], the “S. aureus, P. aeruginosa, and E. coli Day 0” value is recorded as 3.0 × 10^7 cfu/g; the “S. aureus, P. aeruginosa, and E. coli Day 7” value was 3.0 × 10^7 cfu/g; the “S. aureus, P. aeruginosa, and E. coli Day 14” value is 3.0 × 10^7 cfu/g.
On to `C=CCc1ccc(O)c(OC)c1` [Eugenol], for which, in experiment [3], the “S. aureus, P. aeruginosa, and E. coli Day 0” value is reported as 3.0 × 10^7 cfu/g; the “S. aureus, P. aeruginosa, and E. coli Day 7” value is 3.0 × 10^7 cfu/g; the “S. aureus, P. aeruginosa, and E. coli Day 14” value was 3.0 × 10^7 cfu/g.
Consider `CC(C)=CCC/C(C)=C/CO` [Gerniol], for which, in experiment [3], the “S. aureus, P. aeruginosa, and E. coli Day 0” value was 3.0 × 10^7 cfu/g; the “S. aureus, P. aeruginosa, and E. coli Day 7” value is 3.0 × 10^7 cfu/g; the “S. aureus, P. aeruginosa, and E. coli Day 14” value is 3.0 × 10^7 cfu/g.
As to `CC(C)=CCC/C(C)=C\CO` [Nerol], in experiment [3], the “S. aureus, P. aeruginosa, and E. coli Day 0” value was 3.0 × 10^7 cfu/g; the “S. aureus, P. aeruginosa, and E. coli Day 7” value is 3.0 × 10^7 cfu/g; the “S. aureus, P. aeruginosa, and E. coli Day 14” value is listed as 3.0 × 10^7 cfu/g.
With `C=C(C)[C@H]1CC=C(C)CC1` [d-Limonene], in experiment [3], the “S. aureus, P. aeruginosa, and E. coli Day 0” value is reported as 3.0 × 10^7 cfu/g; the “S. aureus, P. aeruginosa, and E. coli Day 7” value is 3.0 × 10^7 cfu/g; the “S. aureus, P. aeruginosa, and E. coli Day 14” value is 3.0 × 10^7 cfu/g.
For the molecule `C/C=C/C=C/C(=O)[O-].[K+]` [potassium sorbate], in experiment [4], the “bacteria count Day 0” value is reported as 1-3 × 10^6 cfu/g, the “bacteria count Day 7” value was 1 × 10^5 cfu/g and the “bacteria count Day 14” value is 6 × 10^4 cfu/g.
For `O=C([O-])c1ccccc1.[Na+]` [sodium benzoate], in experiment [4], the “bacteria count Day 0” value is listed as 1-3 × 10^6 cfu/g, the “bacteria count Day 7” value was 1 × 10^5 cfu/g, the “bacteria count Day 14” value is recorded as 7 × 10^5 cfu/g and the “bacteria count Day 28” value is less than 10 cfu/g.
The like results for `O=C1O[C@H]([C@H](O)CO)C([O-])=C1O.[Na+]` [sodium erythorbate] were, in that order, 1-3 × 10^6 cfu/g, >3 × 10^6 cfu/g, >3 × 10^6 cfu/g and >3 × 10^6 cfu/g.
